Experiment in all cases: growth of human tumour cells (NCI), 48 h
The test system of assay [1] is MCF7.
The subject of assay [2] is IGROV-1.
In assay [3] the test system is HOP-62.
The subject of assay [4] is SNB-75.
Assay [5] has as its system SK-MEL-5.
Assay [6] concerns HCT-15.
Assay [7] concerns ACHN.
Assay [8] has as its system CAKI-1.
In assay [9] the test system is 786-0.
The test system of assay [10] is SK-OV-3.
Assay [11] has as its system MDA-MB-435.
The test system of assay [12] is HCC 2998.
Assay [13] has as its system EKVX.
Assay [14] relates to HT-29.
Assay [15] concerns T47D.
For assay [16], the system named is KM12.
Assay [17] concerns TK-10.
For assay [18], the system named is NCI-H23.
The test system of assay [19] is HOP-92.
The test system of assay [20] is OVCAR-4.

Structures are written as SMILES.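 1) Cells in 96-well plates. 2) Compound, 48 h, 5 concentrations. 3) Linear interpolation between surrounding doses. 4) Unreached endpoint = highest concentration. GI50 marks 50% less growth.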 Calls of active or inactive are those of the source. No stated cut-off is given here; in the data, active = GI50 up to about 1.1 µM and inactive = higher. Where only a bound is given, the exact number is not on record here.

Take `CCC(C)N1CN(c2ccccc2)C2(CCN(CCCSc3ccc(F)cc3)CC2)C1=O` (stereo unspecified): the GI50 in [1] was 3.09 µM (inactive); in [2], 4.31 µM (inactive); in [3], 2.11 µM (inactive); in assay [4], 11.1 µM (inactive); in assay [5] it was 1.96 µM (inactive); in assay [6] it was 1.75 µM. The GI50 in assay [7] is 3.15 µM (inactive); in assay [8] it was 3.45 µM (inactive); in [9] it was 2.89 µM (inactive); in assay [10], 4.92 µM (inactive); in [11], 3.05 µM (inactive); in assay [12] it was 2.04 µM (inactive). For the same compound, the GI50 in assay [13] was 3.33 µM (inactive); in [14] it was 2.15 µM (inactive); in assay [15], 2.99 µM (inactive); in assay [16], 3.92 µM (inactive); in assay [17], 3.27 µM (inactive); in assay [18] it was 4.01 µM (inactive).
With `CC(=O)Nc1nc(O)c2nc(C=O)cnc2n1`, the GI50 in assay [1], in assay [2], in assay [3], in assay [19], in [4] and in assay [5] was > 100 µM (inactive) throughout. The GI50 in assay [6] was > 100 µM; in [7] it was > 100 µM (inactive); in [8] it was > 100 µM (inactive); in assay [9], > 100 µM (inactive); in assay [10], > 100 µM (inactive); in [11] it was > 100 µM (inactive). For the same compound, the GI50 in assay [13], in [14], in assay [15], in [16], in [17] and in [18] was > 100 µM (inactive) each time. Also, the GI50 in assay [20] is > 100 µM (inactive).
Take `COc1cc(Br)c(OC)c2c(OC)cc(C)cc12`: the GI50 was > 100 µM (inactive) in assay [1]; > 100 µM (inactive) in assay [2]; > 100 µM (inactive) in [3]; 14.3 µM (inactive) in assay [4]; > 100 µM in [6]; > 100 µM (inactive) in [7]. For the same compound, the GI50 in [9] was 75.7 µM (inactive); in [10] it was > 100 µM (inactive); in assay [11] it was 70.6 µM (inactive); in assay [12], > 100 µM (inactive); in assay [14] it was 67.8 µM (inactive); in assay [15] it was 54.5 µM (inactive). Besides, the GI50 in assay [16], in [17] and in [18] was > 100 µM (inactive) in each case.
Regarding `O=C(CNc1cccc([N+](=O)[O-])c1)Nn1c(-c2ccccc2)nc2ccccc2c1=O`, the GI50 in assay [1] is 0.389 µM (active); in assay [2], 0.201 µM (active); in assay [3], 1.97 µM (inactive); in assay [5], 1.02 µM (active); in assay [6], 0.419 µM; in assay [7], 1.4 µM (inactive). In addition, the GI50 is 0.399 µM (active) in [9]; 0.573 µM (active) in assay [10]; 2.02 µM (inactive) in assay [11]; 1.49 µM (inactive) in assay [12]; 2.41 µM (inactive) in [13]; 0.312 µM (active) in [14]. In addition, the GI50 in assay [15] is 2.17 µM (inactive); in [16], 1.18 µM (inactive); in [17], 0.363 µM (active); in [18], 0.653 µM (active); in assay [20], 2.18 µM (inactive).
Turning to `COC[C@H](Cc1ccccc1)/N=C/c1ccccc1`, the GI50 was > 100 µM (inactive) in assay [1]; > 100 µM (inactive) in [2]; > 100 µM (inactive) in assay [3]; > 100 µM (inactive) in assay [4]; > 100 µM (inactive) in assay [5]; > 100 µM in [6]. In addition, the GI50 in [7], in assay [8], in assay [9], in assay [10], in assay [11] and in assay [12] was > 100 µM (inactive) each time. Besides, the GI50 in [13], in assay [14], in [15], in assay [16], in assay [17] and in [18] was > 100 µM (inactive) each time. Further, the GI50 in assay [20] was > 100 µM (inactive).
On to `COP1(=O)OCc2cnccc2O1` (stereo unspecified), for which the GI50 was > 100 µM (inactive) in assay [1]; > 100 µM (inactive) in [2]; > 100 µM (inactive) in assay [3]; > 100 µM (inactive) in [4]; > 100 µM (inactive) in [5]; > 100 µM in assay [6]. Besides, the GI50 in assay [7], in [8], in assay [9], in [10], in [11] and in assay [12] was > 100 µM (inactive) in each case. Also, the GI50 in assay [13], in assay [14], in assay [15], in assay [16], in assay [17] and in assay [18] was > 100 µM (inactive) throughout. Also, the GI50 in assay [20] was > 100 µM (inactive).
With `O=C(Nc1ccccc1C(=O)Nc1nccs1)c1ccccc1`, the GI50 is 12.8 µM (inactive) in [1]; 35.8 µM (inactive) in [2]; 16.6 µM (inactive) in assay [3]; 21.1 µM (inactive) in [4]; 4.55 µM (inactive) in assay [5]; 4.37 µM in [6]. Further, the GI50 is 14.3 µM (inactive) in assay [7]; 21.3 µM (inactive) in assay [8]; 16.4 µM (inactive) in [9]; 23.2 µM (inactive) in assay [10]; 33.7 µM (inactive) in [11]; 13.5 µM (inactive) in assay [12]. For the same compound, the GI50 is 36.6 µM (inactive) in assay [13]; 4.44 µM (inactive) in assay [14]; 2.84 µM (inactive) in assay [15]; 6.03 µM (inactive) in assay [16]; 25.6 µM (inactive) in [17]; 65.8 µM (inactive) in assay [18].
Regarding `O=[N+]([O-])/C=C\c1c[nH]c2ccc(OCc3ccccc3)cc12`, the GI50 in [1] was 6.49 µM (inactive); in [2] it was 4.15 µM (inactive); in assay [3], 12.9 µM (inactive); in assay [19], 3.21 µM (inactive); in assay [5], 5.06 µM (inactive); in assay [7] it was 2.13 µM (inactive). The GI50 in assay [8] was 20.6 µM (inactive); in assay [9], 1.93 µM (inactive); in assay [10], 17.5 µM (inactive); in assay [11], 2.16 µM (inactive); in assay [12], 1.67 µM (inactive); in assay [13], 13.4 µM (inactive). Besides, the GI50 is 2.64 µM (inactive) in [15], 2.09 µM (inactive) in assay [16], 10.4 µM (inactive) in [17] and 3.4 µM (inactive) in assay [18].
Take `CC(C)N(c1cc2c(cc1F)c(=O)c(C(=O)O)cn2-c1ccc(N2CCN(C)CC2)cn1)C(C)C`: the GI50 in assay [1] was > 100 µM (inactive); in assay [2] it was > 100 µM (inactive); in assay [3] it was > 100 µM (inactive); in assay [19], > 100 µM (inactive); in assay [4], > 100 µM (inactive); in assay [6], > 100 µM. The GI50 in assay [8], in assay [9], in assay [10], in assay [11], in assay [13] and in assay [14] was > 100 µM (inactive) throughout. Besides, the GI50 in [15], in assay [16], in assay [17], in assay [18] and in [20] was > 100 µM (inactive) throughout.
Turning to `CC(=O)[C@@H]1[C@@H](OC(=O)CCC(C)COC2OC(CO)C(O)C(O)C2O)C[C@H]2[C@@H]3CC=C4C[C@@H](OC5OC(CO)C(OC6OC(C)C(O)C(O)C6O)C(O)C5OC5OC(C)C(O)C(O)C5O)CC[C@]4(C)[C@H]3CC[C@]12C` (stereo partly specified), the GI50 in assay [1], in [3], in assay [4], in assay [5], in [7] and in [8] was > 100 µM (inactive) each time. For the same compound, the GI50 in [9], in [10], in [11], in assay [12], in assay [13] and in assay [15] was > 100 µM (inactive) in each case. Moreover, the GI50 in assay [16], in [17], in assay [18] and in assay [20] was > 100 µM (inactive) each time.
On to `O=C(O)c1ccc(Nc2nc3ccc(C(F)(F)F)cc3nc2-c2ccccc2)cc1`, for which the GI50 in assay [1] is 15 µM (inactive); in assay [2], 43.4 µM (inactive); in assay [3] it was 43 µM (inactive); in assay [4], 40 µM (inactive); in [5] it was 29.2 µM (inactive); in assay [6] it was 18.6 µM. For the same compound, the GI50 in [7] is 32.9 µM (inactive); in assay [8], 44.6 µM (inactive); in assay [9], 37.7 µM (inactive); in assay [11], 34.9 µM (inactive); in [12], 14.5 µM (inactive); in assay [13] it was 29 µM (inactive). For the same compound, the GI50 was > 10 µM (inactive) in assay [14]; 15.6 µM (inactive) in assay [15]; > 10 µM (inactive) in assay [16]; 23.1 µM (inactive) in assay [17]; 48 µM (inactive) in assay [18].
